Data on nine compounds can be found in ChEMBL document CHEMBL1201862, “PubChem BioAssay data set” (2004).

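Growth conditions: 96-well plates. Treatment: test compound, 48 hours, 5 concentrations. Analysis: linear interpolation between bracketing concentrations; unreached endpoints set to highest concentration. Abbreviation: GI50, concentration required for 50% inhibition of growth.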 Active and inactive are the calls of the source. No stated cut-off is given here; in the data, active = GI50 up to about 1.1 µM and inactive = higher. A value given as a limit tells only on which side of the number the result lay.

Some test systems named below: 786-0; A498; CAKI-1; CCRF-CEM; HL-60; HOP-62; HOP-92; MCF7; NCI-H226; NCI-H23; NCI-H522; OVCAR-4; OVCAR-8; SF-295; SF-539; TK-10; U-251; SN12C; MDA-N.
Assay in all cases: NCI tumour cell line growth inhibition, 48 h

Consider `Cc1ccc(/N=C/C=C(\Nc2ccc(C)cc2)c2ccc3ccccc3c2)cc1`, for which the GI50 with 786-0 was 0.757 µM (active); in the assay with A498 it was 10.8 µM (inactive); in the assay on CAKI-1 it was 0.45 µM (active); with CCRF-CEM, 0.189 µM (active); with HL-60, 0.34 µM (active); in the assay on HOP-62 it was 0.912 µM (active). The GI50 was 10.6 µM (inactive) with HOP-92; 0.515 µM (active) in the assay with MCF7; 1.4 µM (inactive) with NCI-H226; 0.585 µM (active) in the assay with NCI-H23; 2.74 µM (inactive) in the assay on NCI-H522; 0.65 µM (active) with OVCAR-4. Also, the GI50 in the assay with OVCAR-8 was > 100 µM (inactive); with SF-295, 0.497 µM (active); in the assay on SF-539, 1.21 µM (inactive); in the assay with TK-10, 1.2 µM (inactive); in the assay with U-251, 0.738 µM (active).

As for `O=C1CCCc2ccc3c(c21)CC1(Cc2cc4c(cc2C1)CCCC4)C3`, the GI50 in the assay on 786-0 is 18.1 µM (inactive); in the assay with A498 it was 37.6 µM (inactive); in the assay on CCRF-CEM, 3.94 µM (inactive); in the assay on HL-60, 6.05 µM (inactive); with HOP-62, 24.7 µM (inactive); with HOP-92 it was 12.9 µM (inactive). Besides, the GI50 with MCF7 is 17.5 µM (inactive); in the assay with NCI-H226 it was 17.4 µM (inactive); with NCI-H23, 18.2 µM (inactive); in the assay with NCI-H522, 17.3 µM (inactive); in the assay on OVCAR-4, 22.1 µM (inactive); in the assay on OVCAR-8, 19.7 µM (inactive). The GI50 was 29.8 µM (inactive) with SF-295; 20.3 µM (inactive) in the assay with SF-539; 19.1 µM (inactive) in the assay with SN12C; 23.1 µM (inactive) in the assay on TK-10; 20.4 µM (inactive) in the assay with U-251.

For `O=c1[nH]nc(-c2ccccc2)n1Nc1ccccc1`, the GI50 in the assay on 786-0, in the assay on A498, in the assay with CAKI-1, with CCRF-CEM, in the assay on HL-60 and in the assay on HOP-92 was > 100 µM (inactive) in each case. In addition, the GI50 in the assay on MDA-N, with NCI-H226, in the assay on NCI-H23, in the assay on NCI-H522, in the assay with OVCAR-4 and in the assay on OVCAR-8 was > 100 µM (inactive) in each case. Besides, the GI50 in the assay with SF-295, in the assay with SF-539, with SN12C, in the assay on TK-10 and in the assay with U-251 was > 100 µM (inactive) throughout.

`Cc1ccc(NNc2cc(=O)[nH]c(=O)[nH]2)cc1Cl`: the GI50 in the assay on 786-0 was 14.6 µM (inactive); with A498, > 100 µM (inactive); in the assay on CAKI-1, 14.4 µM (inactive); in the assay on CCRF-CEM it was 11.1 µM (inactive); in the assay on HL-60, 3.08 µM (inactive); in the assay on HOP-62, 71.9 µM (inactive). Further, the GI50 in the assay on HOP-92 is 14.4 µM (inactive); with MDA-N, 15.2 µM (inactive); with NCI-H226 it was 56.9 µM (inactive); with NCI-H23, 16.8 µM (inactive); with NCI-H522 it was 16.5 µM (inactive); with OVCAR-4 it was 14.7 µM (inactive). Also, the GI50 in the assay with SF-295 is 37.5 µM (inactive); with SF-539, 19.5 µM (inactive); in the assay with SN12C, > 100 µM (inactive); in the assay on TK-10, 19.1 µM (inactive); with U-251 it was 16.4 µM (inactive).

Turning to `O=C1N[C@@H](COc2ccc(/C=N/c3ccc(CCc4ccc(/N=C/c5ccc(OC[C@@H]6COC(=O)N6)cc5)cc4)cc3)cc2)CO1`, the GI50 in the assay on 786-0, with A498, in the assay on CAKI-1, in the assay with HL-60, in the assay with HOP-62 and in the assay with MDA-N was > 100 µM (inactive) throughout. Besides, the GI50 with NCI-H226, in the assay with NCI-H522, in the assay on OVCAR-4, with OVCAR-8, in the assay with SF-295 and with SN12C was > 100 µM (inactive) in each case. In addition, the GI50 in the assay with TK-10 and in the assay with U-251 was > 100 µM (inactive) in each case.

With `O=C1C(C2=[N+]([O-])c3ccccc3C2=O)=[N+]([O-])c2ccccc21`, the GI50 was 20.6 µM (inactive) in the assay on 786-0; 25.4 µM (inactive) with A498; 19.3 µM (inactive) in the assay with CCRF-CEM; 19.4 µM (inactive) in the assay with HL-60; 25.5 µM (inactive) with NCI-H226; 23.9 µM (inactive) in the assay with NCI-H23. Moreover, the GI50 in the assay on OVCAR-4 was 14.5 µM (inactive); in the assay with OVCAR-8, 24.7 µM (inactive); in the assay with SF-295 it was 40.7 µM (inactive); in the assay with SF-539, 20.5 µM (inactive); in the assay on TK-10, 35.4 µM (inactive); with U-251 it was 20.4 µM (inactive).

Turning to `Cc1ccc(/C(=C/C=C(C#N)C#N)Sc2cc(Cl)ccc2Cl)cc1`, the GI50 is 1.92 µM (inactive) in the assay with 786-0; 4.76 µM (inactive) in the assay on CAKI-1; 3.71 µM (inactive) with HOP-62; 17.5 µM (inactive) with MCF7; 3.02 µM (inactive) with NCI-H226; 3.85 µM (inactive) in the assay with NCI-H23. Moreover, the GI50 in the assay with NCI-H522 is 3.55 µM (inactive); in the assay with OVCAR-4 it was 6.31 µM (inactive); in the assay on OVCAR-8, 2.37 µM (inactive); in the assay with SF-295 it was 3.43 µM (inactive); in the assay with SF-539, 3.18 µM (inactive); with SN12C it was 3.22 µM (inactive). For the same compound, the GI50 was 2.92 µM (inactive) in the assay with TK-10 and 3.21 µM (inactive) in the assay on U-251.

For the compound `C=CCCON(C(=O)OC(C)(C)C)C(C)(C)C`, the GI50 with 786-0, with A498, with CAKI-1, with CCRF-CEM, in the assay with HL-60 and in the assay with HOP-62 was > 100 µM (inactive) in each case. Further, the GI50 in the assay on HOP-92, in the assay with MDA-N, in the assay on NCI-H226, in the assay with NCI-H23, with NCI-H522 and in the assay with OVCAR-8 was > 100 µM (inactive) throughout. Moreover, the GI50 in the assay on SF-295, with SF-539, with SN12C, in the assay with TK-10 and in the assay on U-251 was > 100 µM (inactive) each time.

For the compound `CC[n+]1[b-](C(C)(C)C)n(/N=C(\C)C(C)(C)C)[b-](C(C)(C)C)[n+]1CC`, the GI50 in the assay on 786-0 was > 100 µM (inactive); in the assay with CAKI-1 it was > 100 µM (inactive); in the assay on CCRF-CEM, > 100 µM (inactive); in the assay on HOP-62, > 100 µM (inactive); in the assay on MCF7, > 100 µM (inactive); with MDA-N, > 10 µM (inactive). Further, the GI50 in the assay on NCI-H226 is 72.9 µM (inactive); in the assay with NCI-H23, > 100 µM (inactive); with NCI-H522, > 100 µM (inactive); with OVCAR-4, > 100 µM (inactive); in the assay with OVCAR-8, > 100 µM (inactive); in the assay with SF-295, > 100 µM (inactive). The GI50 with SF-539, in the assay on SN12C, in the assay with TK-10 and in the assay with U-251 was > 100 µM (inactive) throughout.
